In US20170196878A1, “USE OF CBP/EP300 AND BET INHIBITORS FOR TREATMENT OF CANCER” (GENENTECH, INC., priority 2014, published 2017):

Tests used:
[1] = biological target: T1, ZsGreen-bromodomain fusion protein (CBP) (Homo sapiens, UniProt Q92793); assay: Release of chromatin-bound ZsGreen-bromodomain fusion protein (CBP), high content imaging of nuclear foci; format: cell-based; details: number of nuclear foci, read-out: Calculated EC50, release of chromatin-bound ZsGreen-CBP bromodomain fusion protein
T1 construct: expressed in transfected cells
Description: (§1) Release of chromatin-bound ZsGreen-bromodomain fusion proteins in the presence of compound was monitored with high content imaging. Each curve represents the indicated compound and the indicated fusion protein (BRD4 or CBP). The number of nuclear foci increases with compound target engagement (values are mean of four fields per well of two technical replicates, +SEM).

[2] = tested on: IRF4 mRNA expression; assay: IRF4 mRNA expression in LP-1 cells by q-RTPCR; format: cell-based; details: 6 h, q-RTPCR normalized to GAPDH
Protocol: FIG. 8. CBP/EP300 and BET bromodomain inhibition have distinct transcriptional effects. […] Expression values for replicate compound treated samples were normalized to paired DMSO controls to obtain log2 fold change values. […] Cells were treated with compound for 6 h, and mRNA expression was assessed with q-RTPCR and normalized to GAPDH. Values represent the mean of n=3, ±SEM. […] LP-1 cells were treated with a titration of CPI203 for 6 h, and IRF4 expression was determined by q-RTPCR and normalized to GAPDH. Values represent the mean of n=2, ±SEM.

[3] = biological target: ZsGreen-bromodomain fusion protein (BRD4) (Homo sapiens, UniProt O60885); assay: Release of chromatin-bound ZsGreen-bromodomain fusion protein (BRD4), high content imaging of nuclear foci; details: read-out: Calculated EC50, release of chromatin-bound ZsGreen-BRD4 bromodomain fusion protein, number of nuclear foci
Description: as §1

T1 sequence (Q92793 1085-1192 limits assumed): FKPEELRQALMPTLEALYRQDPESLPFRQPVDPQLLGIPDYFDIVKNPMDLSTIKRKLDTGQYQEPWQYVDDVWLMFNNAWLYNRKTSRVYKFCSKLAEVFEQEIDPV

Row | EC50 [3] | SMILES | EC50 [1] | IRF4 mRNA expression [2]
1 | > 20 µM | CCC(=O)N1CCOc2c(cc(-c3ccc(OC)c(OC)c3)cc2OC[C@H]2CCCN(C)C2)C1 [I-CBP112] | 2.6 µM | 
2 | 21.5 µM | COc1ccc(CCc2nc3cc(-c4c(C)noc4C)ccc3n2C[C@H](C)N2CCOCC2)cc1Cl [SGC-CBP30] |  | Dose-dependent inhibition

Row | SMILES | EC50 [3] | EC50 [1] | IRF4 mRNA expression [2]
3 | Cc1sc2c(c1C)C(c1ccc(Cl)cc1)=N[C@@H](CC(N)=O)c1nnc(C)n1-2 [CPI203] | 0.08 µM | 1.8 µM | does not directly regulate
